Read-outs that look alike come from different tables or passages of the source.
System: HCV replicon cells
Experiment: Cell-based HCV replicon assay (replicon RNA level by real time PCR, Taqman)
Settings: Hepatitis C virus, 72 h, HCV replicon cells, read-out: EC90 (μM) range
Outline: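 Readout: ΔCT between NS5B replicon RNA and GAPDH by real-time RT-PCR in lysates harvested on day 3, fitted sigmoidally; EC50 at ΔCT=1, EC90 at ΔCT=3.2. Compounds tested at ten 2-fold dilutions from 25 μM to 1 μM start, 10% FBS, 0.5% DMSO.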

[1] = harvested on day 3, replicon RNA by real time PCR, calculated EC90 reported as range class
[2] = replicon RNA level by real time PCR (Taqman), harvested on day 3, calculated EC90 reported as range class
[3] = replicon RNA level by real time PCR, harvested day 3
[4] = harvested day 3, replicon RNA by real time PCR, reported as range class
[5] = harvested day 3, replicon RNA by real time PCR, given as number

Cc1nc(NCC(F)(F)F)nc(N[C@@H]2C[C@H](CO)[C@H]3OC(C)(C)O[C@H]32)c1-c1cc2cc(C(F)(F)F)ncc2o1 [Example 140]
EC90 [1]: 0.5 to 5 µM

COc1cc(OC)cc(C(C)Nc2nc(C)c(-c3nc4cnccc4s3)c(N[C@@H]3C[C@H](CO)[C@@H](O)[C@H]3O)n2)c1 (stereo partly drawn) [Example 1306]
EC90 [2]: < 0.5 µM

Cc1nc(NCC(F)(F)F)nc(N[C@@H]2C[C@H](CN3CCOC3=O)[C@@H](O)[C@H]2O)c1-c1nc2ccccc2s1 [Example 1400]
EC90 [3]: < 0.5 µM

Cc1nc(Nc2ncco2)nc(N[C@@H]2C[C@H](CO)[C@@H](O)[C@H]2O)c1-c1nc2ccccc2s1 [Example 1226]
EC90 [2]: > 5 µM

COCc1cc2cc(-c3c(Cl)nc(N)nc3N[C@@H]3C[C@H](CO)[C@@H](O)[C@H]3O)oc2cn1 [Example 310]
EC90 [4]: < 0.5 µM

Cc1nc(NCC2CC2)nc(N[C@@H]2C[C@H](CO)[C@@H](O)[C@@H]2O)c1-c1nc2ccccc2s1 [Example 1252]
EC90 [2]: > 5 µM

Cc1nc(NCC(F)(F)F)nc(N[C@@H]2C[C@H](CN)[C@@H](O)[C@H]2O)c1-c1nc2ccccc2s1 [Example 1519]
EC90 [3]: 0.5 to 5 µM

COCCNc1nc(C)c(-c2cc3ccccc3s2)c(N[C@@H]2C[C@H](CO)[C@@H](O)[C@H]2O)n1 [Example 1601]
EC90 [3]: > 5 µM

Cc1nc(NCC(C)(C)C)nc(N[C@@H]2C[C@H](CO)[C@@H](O)[C@H]2O)c1-c1nc2ccccc2o1 [Example 1359]
EC90 [3]: < 0.5 µM

COc1ccc([C@@H](C)Nc2nc(C)c(-c3nc4c(C)nccc4s3)c(N[C@@H]3C[C@H](CO)[C@@H](O)[C@H]3O)n2)cc1 [Example 1529]
EC90 [3]: < 0.5 µM

CCOCCCNc1nc(C)c(-c2nc3ccccc3s2)c(N[C@@H]2C[C@H](CO)[C@@H](O)[C@H]2O)n1 [Example 1041]
EC90 [2]: 0.5 to 5 µM

Cc1cccc(CNc2nc(C)c(-c3nc4ccccc4s3)c(N[C@@H]3C[C@H](CO)[C@@H](O)[C@H]3O)n2)n1 [Example 1208]
EC90 [2]: 0.5 to 5 µM

Cc1nc(NC2CC2)nc(N[C@@H]2C[C@H](CO)[C@@H](O)[C@H]2O)c1-c1nc2c(CC(C)C)nccc2s1 [Example 1537]
EC90 [3]: < 0.5 µM

COc1cc(CNc2nc(C)c(-c3nc4ccccc4s3)c(N[C@@H]3C[C@H](CO)[C@H]4OC(C)(C)O[C@H]43)n2)cc(OC)c1 [Example 500]
EC90 [1]: < 0.5 µM

CC(=O)N1CCC(Nc2nc(Cl)c(-c3nc4ccccc4s3)c(N[C@@H]3C[C@H](CO)[C@@H](O)[C@H]3O)n2)CC1 [Example 507]
EC90 [1]: < 0.5 µM

Cc1nc(NCc2ccco2)nc(N[C@@H]2C[C@H](CO)[C@@H](O)[C@H]2O)c1-c1nc2cnccc2s1 [Example 1215]
EC90 [2]: < 0.5 µM

CCc1nccc2sc(-c3c(C)nc(NCC4CC4)nc3N[C@@H]3C[C@H](CO)[C@@H](O)[C@H]3O)nc12 [Example 1333]
EC90 [2]: < 0.5 µM

CCc1cc2cc(-c3c(C)nc(NCc4cc(OC)cc(OC)c4)nc3N[C@@H]3C[C@H](CO)[C@@H](O)[C@H]3O)oc2cn1 [Example 346]
EC90 [1]: < 0.5 µM

Cc1nc(Nc2ccccc2OCc2ccccc2)nc(N[C@@H]2C[C@H](CO)[C@H]3OC(C)(C)O[C@H]32)c1-c1nc2ccccc2s1 [Example 1124]
EC90 [2]: > 5 µM

Cc1nc(NCc2cccs2)nc(N[C@@H]2C[C@H](CN)[C@@H](O)[C@H]2O)c1-c1nc2ccccc2s1 [Example 1328]
EC90 [2]: < 0.5 µM

Cc1nc(NCc2cc3ccccc3s2)nc(N[C@@H]2C[C@H](CO)[C@@H](O)[C@H]2O)c1-c1nc2ccccc2s1 [Example 478]
EC90 [1]: < 0.5 µM

CO[C@H](C)CNc1nc(C)c(-c2nc3ccccc3s2)c(N[C@@H]2C[C@H](CO)[C@@H](O)[C@H]2O)n1 [Example 231]
EC90 [1]: < 0.5 µM

COc1cc(CNc2nc(C)c(-c3nc4ccccc4s3)c(N[C@@H]3C[C@H](CO)[C@@H](O)C3)n2)cc(OC)c1 [Example 1241]
EC90 [2]: < 0.5 µM

Cc1nc(NCCc2ccccc2)nc(N[C@@H]2C[C@H](CO)[C@@H](O)[C@H]2O)c1-c1nc2ccccc2s1 [Example 445]
EC90 [1]: < 0.5 µM

COc1ccccc1Nc1nc(C)c(-c2nc3ccccc3s2)c(N[C@@H]2C[C@H](CO)[C@@H](O)[C@H]2O)n1 [Example 1123]
EC90 [2]: 0.5 to 5 µM

Cc1nc(N[C@H](C)c2ccccc2)nc(N[C@@H]2C[C@H](CO)[C@@H](O)[C@H]2O)c1-c1nc2cnccc2s1 [Example 543]
EC90 [2]: < 0.5 µM

Cc1nc(NC2CCC2)nc(N[C@@H]2C[C@H](CO)[C@@H](O)[C@H]2O)c1-c1nc2c(C)nccc2s1 [Example 1544]
EC90 [3]: < 0.5 µM

CCCNc1nc(Cl)c(-c2nc3ccccc3s2)c(N[C@@H]2C[C@H](CO)[C@@H](O)[C@H]2O)n1 [Example 419]
EC90 [1]: < 0.5 µM

COc1cc(CNc2nc(C)c(-c3cc4cc(OCC5CC5)ncc4o3)c(N[C@@H]3C[C@H](CO)[C@@H](O)[C@H]3O)n2)cc(OC)c1 [Example 56]
EC90 [5]: 0.06 µM

Cc1nc(NCc2cccnc2)nc(N[C@@H]2C[C@H](CO)[C@@H](O)[C@H]2O)c1-c1nc2ccccc2s1 [Example 466]
EC90 [1]: < 0.5 µM

Cc1nc(NCc2cccs2)nc(N[C@@H]2CC[C@@H](O)[C@H]2O)c1-c1nc2cnccc2s1 [Example 1214]
EC90 [2]: < 0.5 µM

Cc1cccc([C@@H](C)Nc2nc(C)c(-c3nc4c(C)nccc4s3)c(N[C@@H]3C[C@H](CO)[C@@H](O)[C@H]3O)n2)c1 [Example 1525]
EC90 [3]: < 0.5 µM

Nc1nc(Cl)c(-c2cc3c(F)cncc3o2)c(N[C@@H]2C[C@H](CO)[C@@H](O)[C@H]2O)n1 [Example 303]
EC90 [4]: 0.5 to 5 µM

Cc1nc(NC2CC2)nc(N[C@@H]2CC[C@@H](O)[C@@]2(C)O)c1-c1nc2cnccc2s1 [Example 1820]
EC90 [3]: 0.5 to 5 µM

COc1cc2cc(-c3c(C)nc(NCc4ccccn4)nc3N[C@@H]3C[C@H](CO)[C@H]4OC(C)(C)O[C@H]43)oc2c(C)n1 [Example 349]
EC90 [1]: 0.5 to 5 µM

COC(C)(C)CNc1nc(C)c(-c2nc3ccccc3s2)c(N[C@@H]2C[C@H](CO)[C@H]3OC(C)(C)O[C@H]32)n1 [Example 471]
EC90 [1]: < 0.5 µM

Cc1nc(NCc2nccs2)nc(N[C@@H]2C[C@H](CO)[C@@H](O)[C@H]2O)c1-c1nc2ccccc2s1 [Example 474]
EC90 [1]: < 0.5 µM

Nc1nc(N[C@@H]2C[C@H](CO)[C@@H](O)[C@H]2O)c(-c2ncco2)c(-c2ncco2)n1 [Example 107]
EC90 [4]: > 5 µM

Nc1nc(Cl)c(-c2ccccc2)c(N[C@@H]2C[C@H](CO)[C@@H](O)[C@H]2O)n1 [Example 5]
EC90 [4]: > 5 µM

Cc1cccnc1CNc1nc(C)c(-c2nc3ccccc3s2)c(N[C@@H]2C[C@H](CO)[C@@H](O)[C@H]2O)n1 [Example 499]
EC90 [1]: < 0.5 µM

CCCCCNc1nc(Cl)c(-c2nc3ccccc3s2)c(N[C@@H]2C[C@H](CO)[C@@H](O)[C@H]2O)n1 [Example 433]
EC90 [1]: < 0.5 µM

Cc1nc(N[C@H](C)c2ccc(OC(F)(F)F)cc2)nc(N[C@@H]2C[C@H](C(C)O)[C@@H](O)[C@H]2O)c1-c1nc2cnccc2s1 (stereo partly drawn) [Example 1649]
EC90 [3]: < 0.5 µM

Cc1nc(NCc2cccc(CN(C)C)c2)nc(N[C@@H]2C[C@H](CO)[C@@H](O)[C@H]2O)c1-c1nc2ccccc2s1 [Example 1119]
EC90 [2]: 0.5 to 5 µM

Cc1nc(NCc2cccc(CN(C)C)c2)nc(N[C@@H]2C[C@H](CO)[C@H]3OC(C)(C)O[C@H]32)c1-c1nc2ccccc2s1 [Example 1118]
EC90 [2]: > 5 µM

Cc1nc(N[C@H](c2ccc(C(F)(F)F)cc2)C(F)(F)F)nc(N[C@@H]2C[C@H](CO)[C@@H](O)[C@H]2O)c1-c1nc2c(C)nccc2s1 [Example 1531]
EC90 [3]: > 5 µM

Cc1nc(NCC2CC2)nc(N[C@@H]2C[C@H](CO)[C@@H](O)[C@H]2O)c1-c1cc2ccccc2s1 [Example 1603]
EC90 [3]: > 5 µM

Cc1nc(NCC2CC2)nc(N[C@@H]2CC[C@@H](O)[C@@]2(C)O)c1-c1nc2cnccc2s1 [Example 1704]
EC90 [3]: < 0.5 µM

OCCNc1nc(Cl)c(-c2nc3ccccc3s2)c(N[C@@H]2C[C@H](CO)[C@@H](O)[C@H]2O)n1 [Example 212]
EC90 [4]: < 0.5 µM

CO[C@@H]1[C@H](O)[C@@H](CO)C[C@H]1Nc1nc(NCC(F)(F)F)nc(C)c1-c1nc2ccccc2o1 [Example 1354]
EC90 [3]: < 0.5 µM

Cc1nc(NCC(F)(F)F)nc(N[C@@H]2C[C@H](C(O)c3nccn3C)[C@@H](O)[C@H]2O)c1-c1nc2ccccc2s1 (stereo partly drawn) [Example 1653]
EC90 [3]: < 0.5 µM

COCCNc1nc(C)c(-c2cc3cc(OCC(C)(C)C)nc(C)c3o2)c(N[C@@H]2C[C@H](CO)[C@@H](O)[C@H]2O)n1 [Example 49]
EC90 [5]: > 25 µM

Nc1ncc(-c2cc3ccncc3o2)c(N[C@@H]2C[C@H](CO)[C@@H](O)[C@H]2O)n1 [Example 113]
EC90 [4]: 0.5 to 5 µM

Cc1nc(NCC(F)(F)F)nc(N[C@@H]2C[C@H](CN3CCCC3)[C@@H](O)[C@H]2O)c1-c1nc2ccccc2s1 [Example 1017]
EC90 [2]: 0.5 to 5 µM

CCOCCNc1nc(C)c(-c2nc3cnccc3s2)c(N[C@@H]2C[C@H](CO)[C@@H](O)[C@H]2O)n1 [Example 525]
EC90 [2]: < 0.5 µM

Nc1nc(Cl)c(-c2ccc3c(c2)OCO3)c(N[C@@H]2C[C@H](CO)[C@@H](O)[C@H]2O)n1 [Example 151]
EC90 [4]: > 5 µM

COc1cc(OC)cc(Oc2nc(C)c(-c3nc4ccccc4s3)c(N[C@@H]3C[C@H](CO)[C@@H](O)[C@H]3O)n2)c1 [Example 1211]
EC90 [2]: > 5 µM

CCCCCNc1nc(C)c(-c2cc3cc(CC)ncc3o2)c(N[C@@H]2C[C@H](CO)[C@@H](O)[C@H]2O)n1 [Example 514]
EC90 [1]: < 0.5 µM

Cc1nc(NCc2ccco2)nc(N[C@@H]2C[C@H](CO)[C@H]3OC(C)(C)O[C@H]32)c1-c1nc2ccccc2s1 [Example 469]
EC90 [1]: < 0.5 µM

Cc1nc(NCC(C)(C)CO)nc(N[C@@H]2C[C@H](CO)[C@@H](O)[C@H]2O)c1-c1nc2cnccc2s1 [Example 1317]
EC90 [2]: < 0.5 µM

CCc1cc2cc(-c3c(Cl)nc(NCC(C)C)nc3N[C@@H]3C[C@H](CO)[C@@H](O)[C@H]3O)oc2cn1 [Example 518]
EC90 [1]: < 0.5 µM

Reference: US8697694B2, “Substituted pyridine and pyrimidine derivatives and their use in treating viral infections” (priority 2008, dated 2014)
